Measurements from US20240254115A1 (ACONDICIONAMIENTO TARRASENSE, priority 2021, published 2024).

What was measured:
human σ1 receptor = target: T1, human σ1 receptor (Homo sapiens, UniProt Q99720); test: Human σ1 receptor radioligand assay; settings: transfected HEK-293 membranes, 5 nM [3H](+)-pentazocine, 37° C. 120 minutes; + may also stand for 1-50% inhibition at 1 or 10 μM; read-out: Binding σ-1 Ki
T1 construct: expressed in transfected cells; host or cells: HEK-293
Description: Human σ1 Receptor Radioligand Assay
Transfected HEK-293 membranes (7 μg) were incubated with 5 nM of [^3H](+)-pentazocine in assay buffer containing Tris-HCl 50 mM at pH 8. NBS (non-specific binding) was measured by adding 10 μM haloperidol. The binding of the test compound was measured at either one concentration (% inhibition at 1 or 10 μM) or five different concentrations to determine affinity values (Ki). Plates were incubated at 37° C. for 120 minutes. After the incubation period, the reaction mix was then transferred to MultiScreen HTS, FC plates (Millipore), filtered and plates were washed 3 times with ice-cold 10 mM Tris-HCL (pH7.4). Filters were dried and counted at approximately 40% efficiency in a MicroBeta scintillation counter (Perkin-Elmer) using EcoScint liquid scintillation cocktail.

human σ2/TMEM97 receptor = target: T2, human σ2/TMEM97 receptor (Homo sapiens, UniProt Q5BJF2); test: Binding assay to human σ2/TMEM97 receptor; settings: transfected HEK-293 membranes, 10 nM [3H]-DTG, 25° C. 120 minutes; + may also stand for 1-50% inhibition at 1 or 10 μM; read-out: Binding σ-2 Ki
T2 construct: expressed in transfected cells; host or cells: HEK-293
T2 sequence (Q5BJF2 whole entry): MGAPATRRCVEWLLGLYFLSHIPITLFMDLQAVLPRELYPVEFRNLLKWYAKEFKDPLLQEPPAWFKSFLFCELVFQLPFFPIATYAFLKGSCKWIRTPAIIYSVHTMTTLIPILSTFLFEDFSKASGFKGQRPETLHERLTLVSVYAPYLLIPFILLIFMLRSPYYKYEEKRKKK
Description: Binding Assay to Human σ2/TMEM97 Receptor
Transfected HEK-293 membranes (15 μg) were incubated with 10 nM [^3H]-1,3-Di-o-tolylguanidine (DTG) in assay buffer containing Tris-HCl 50 mM at pH 8.0. NSB (non-specific binding) was measured by adding 10 μM haloperidol. The binding of the test compound was measured at either one concentration (% inhibition at 1 or 10 μM) or five different concentrations to determine affinity values (Ki). Plates were incubated at 25° C. for 120 minutes. After the incubation period, the reaction mix was transferred to MultiScreen HTS, FC plates (Millipore), filtered and washed 3 times with ice-cold 10 mM Tris-HCL (pH 8.0). Filters were dried and counted at approximately 40% efficiency in a MicroBeta scintillation counter (Perkin-Elmer) using EcoScint liquid scintillation cocktail.

T1 sequence (Q99720 whole entry): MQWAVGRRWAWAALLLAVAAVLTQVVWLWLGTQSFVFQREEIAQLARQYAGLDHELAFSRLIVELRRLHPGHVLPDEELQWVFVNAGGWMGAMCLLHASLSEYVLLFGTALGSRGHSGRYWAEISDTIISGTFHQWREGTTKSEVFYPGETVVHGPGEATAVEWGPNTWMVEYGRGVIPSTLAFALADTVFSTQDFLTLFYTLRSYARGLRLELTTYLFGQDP

Row | Structure (SMILES) | Ki (human σ1 receptor) | Ki (human σ2/TMEM97 receptor)
1 | CC(C)(C)CCN1CCC2(CCCN(S(=O)(=O)c3ccc(N4CCOCC4=O)nc3)C2)CC1 [Example 120, 4-(5-((9-(3,3-Dimethylbutyl)-2,9-diazaspiro[5.5]undecan-2-yl)sulfonyl)pyridin-2-yl)morpholin-3-one] | 100 to 500 nM | < 100 nM
2 | CC(C)(C)CN1CCCC2(CCN(S(=O)(=O)c3ccc(N4CCC(F)(F)CC4)nc3)CC2)C1 [Example 85, 9-((6-(4,4-Difluoropiperidin-1-yl)pyridin-3-yl)sulfonyl)-2-neopentyl-2,9-diazaspiro[5.5]undecane] | < 100 nM | 500 to 1000 nM
3 | O=S(=O)(c1ccc(N2CCOCC2)nc1)N1CCC2(CCN(Cc3ccccc3)CC2)CC1 [Example 12, 4-(5-((9-Benzyl-3,9-diazaspiro[5.5]undecan-3-yl)sulfonyl)pyridin-2-yl)morpholine] | > 1000 nM | < 100 nM
4 | O=S(=O)(N[C@H]1CC[C@H](NCc2ccccc2F)CC1)c1ccc(N2CCOCC2)nc1 [Example 53, N-((1r,4r)-4-((2-Fluorobenzyl)amino)cyclohexyl)-6-morpholinopyridine-3-sulfonamide] | > 1000 nM | 100 to 500 nM
5 | O=C1OCCN1c1ccc(S(=O)(=O)N2CCCC3(CCN(Cc4cc(F)ccc4F)CC3)C2)cn1 [Example 160, 3-(5-((9-(2,5-Difluorobenzyl)-2,9-diazaspiro[5.5]undecan-2-yl)sulfonyl)pyridin-2-yl)oxazolidin-2-one] | < 100 nM | < 100 nM
6 | O=S(=O)(N[C@H]1CCN(Cc2ccc(F)cc2)C1)c1ccc(N2CCOCC2)nc1 [Example 41, (S)-N-(1-(4-Fluorobenzyl)pyrrolidin-3-yl)-6-morpholinopyridine-3-sulfonamide] | < 100 nM | > 1000 nM
7 | CN(CC(C)(C)C)[C@H]1CC[C@H](NS(=O)(=O)c2ccc(N3CCC4(CCOC4)CC3)nc2)CC1 [Example 182, N-((1r,4r)-4-(Methyl(neopentyl)a-mino)cyclohexyl)-6-(2-oxa-8-azaspiro[4.5]decan-8-yl)pyridine-3-sulfonamide] | > 1000 nM | 500 to 1000 nM
8 | CN(Cc1cccc(F)c1)[C@H]1CC[C@H](NS(=O)(=O)c2ccc(N3CCOCC3)nc2)CC1 [Example 57, N-((1r,4r)-4-((3-Fluorobenzyl) (methyl)amino)cyclo-hexyl)-6-morpholinopyridine-3-sulfonamide] | > 1000 nM | < 100 nM
9 | COC1CCN(c2ccc(S(=O)(=O)N[C@@H]3CCN(Cc4ccccc4)C3)cn2)CC1 [Example 26, (R)-N-(1-Benzylpyrrolidin-3-yl)-6-(4-methoxypiperidin-1-yl)pyridine-3-sulfonamide] | 500 to 1000 nM | > 1000 nM
10 | CN(CC(C)(C)C)C1CCN(S(=O)(=O)c2ccc(N3CCC(F)(F)CC3)nc2)CC1 [Example 100, 1-((6-(4,4-Difluoropiperidin-1-yl)pyridin-3-yl)sulfonyl)-N-methyl-N-neopentylpiperidin-4-amine] | < 100 nM | < 100 nM
11 | CC(C)(C)CCN1CCC2(CC1)CCN(S(=O)(=O)c1ccc(N3CCC4(CCCO4)CC3)nc1)CC2 [Example 71, 8-(5-((9-(3,3-Dimethylbutyl)-3,9-diazaspiro[5.5]undecan-3-yl)sulfonyl)pyridin-2-yl)-1-oxa-8-azaspiro[4.5]decane] | < 100 nM | < 100 nM
12 | O=S(=O)(N[C@@H]1CCN(Cc2ccccc2)C1)c1ccc(N2[C@@H]3CC[C@H]2COC3)nc1 [Example 27, N-((R)-1-Benzylpyrrolidin-3-yl)-6-((1R,5S)-3-oxa-8-azabicyclo [3.2.1]octan-8-yl)pyridine-3-sulfonamide] | – | > 1000 nM

Further lines, results first:

Row | Ki (human σ1 receptor) | Ki (human σ2/TMEM97 receptor) | Structure (SMILES)
13 | < 100 nM | < 100 nM | CC(C)(C)CCN1CCC2(CC1)CCN(S(=O)(=O)c1ccc(C(F)(F)F)nc1)C2 [Example 67, 8-(3,3-Dimethylbutyl)-2-((6-(trifluoromethyl)pyridin-3-yl)sulfonyl)-2,8-diazaspiro[4.5]decane]
14 | < 100 nM | < 100 nM | O=C1OCCN1c1ccc(S(=O)(=O)N2CCC3(CCN(Cc4ccccc4)CC3)CC2)cn1 [Example 135, 3-(5-((9-Benzyl-3,9-diazaspiro[5.5]undecan-3-yl)sulfonyl)pyridin-2-yl)oxazolidin-2-one]
15 | > 1000 nM | < 100 nM | CN(Cc1ccc(F)cc1)[C@H]1CC[C@H](NS(=O)(=O)c2ccc(N3CCOCC3)nc2)CC1 [Example 28, N-((1r,4r)-4-((4-Fluorobenzyl)(methyl)amino)cyclohexyl)-6-morpholinopyridine-3-sulfonamide]
16 | 100 to 500 nM | 100 to 500 nM | CN(Cc1cc(F)ccc1F)C1CCN(S(=O)(=O)c2ccc(N3CCC(F)(F)CC3)nc2)CC1 [Example 174, N-(2,5-Difluorobenzyl)-1-((6-(4,4-difluoropiperidin-1-yl)pyridin-3-yl)sulfonyl)-N-methylpiperidin-4-amine]
17 | 100 to 500 nM | < 100 nM | CC(C)CCN1CCC2(CC1)CCN(S(=O)(=O)c1ccc(N3CCC(F)(F)CC3)nc1)CC2 [Example 73, 3-((6-(4,4-Difluoropiperidin-1-yl)pyridin-3-yl)sulfonyl)-9-isopentyl-3,9-diazaspiro[5.5]undecane]
18 | 100 to 500 nM | < 100 nM | CN(Cc1ccccc1)[C@H]1CC[C@H](NS(=O)(=O)c2ccc(N3CCCOCC3)nc2)CC1 [Example 32, N-((1r,4r)-4-(Benzyl(methyl)amino)cyclohexyl)-6-(1,4-oxazepan-4-yl) pyridine-3-sulfonamide]
19 | < 100 nM | > 1000 nM | O=S(=O)(NC1CCN(Cc2cccc(F)c2)CC1)c1ccc(N2CCOCC2)nc1 [Example 8, N-(1-(3-Fluorobenzyl)piperidin-4-yl)-6-morpholinopyridine-3-sulfonamide]
20 | 100 to 500 nM | < 100 nM | CC(C)(C)CCN1CCC2(CCCN(S(=O)(=O)c3ccc(N4CCOC4=O)nc3)C2)CC1 [Example 123, 3-(5-((9-(3,3-Dimethylbutyl)-2,9-diazaspiro[5.5]undecan-2-yl)sulfonyl)pyridin-2-yl)oxazolidin-2-one]
21 | < 100 nM | < 100 nM | CN(C)c1ccc(S(=O)(=O)N2CCCC3(CCN(CCC(C)(C)C)CC3)C2)cn1 [Example 97, 5-((9-(3,3-Dimethylbutyl)-2,9-diazaspiro[5.5]undecan-2-yl)sulfonyl)-N,N-dimethylpyridin-2-amine]
22 | < 100 nM | < 100 nM | CC(C)(C)CCN1CCC2(CCCN(S(=O)(=O)c3ccc(N4CCC(F)(F)CC4)nc3)C2)CC1 [Example 96, 2-((6-(4,4-Difluoropiperidin-1-yl)pyridin-3-yl)sulfonyl)-9-(3,3-dimethylbutyl)-2,9-diazaspiro[5.5]undecane]
23 | 500 to 1000 nM | 500 to 1000 nM | O=C1OCCN1c1ccc(S(=O)(=O)N2CCC3(CCCN(Cc4cc(F)ccc4F)C3)CC2)cn1 [Example 146, 3-(5-((2-(2,5-Difluorobenzyl)-2,9-diazaspiro[5.5]undecan-9-yl)sulfonyl)pyridin-2-yl)oxazolidin-2-one]
24 | > 1000 nM | < 100 nM | O=C1OCCN1c1ccc(S(=O)(=O)N2CCC3(CCN(Cc4cc(F)ccc4F)CC3)CC2)cn1 [Example 156, 3-(5-((9-(2,5-Difluorobenzyl)-3,9-diazaspiro[5.5]undecan-yl)sulfonyl)pyridin-2-yl)oxazolidin-3-2-one]
25 | 500 to 1000 nM | 100 to 500 nM | O=C1OCCN1c1ccc(S(=O)(=O)N2CCC3(CCCN(Cc4ccccc4)C3)CC2)cn1 [Example 147, 3-(5-((2-Benzyl-2,9-diazaspiro[5.5]undecan-9-yl)sulfonyl)pyridin-2-yl)oxazolidin-2-one]
26 | 500 to 1000 nM | > 1000 nM | N#Cc1cccc(CN2CC[C@H](NS(=O)(=O)c3ccc(N4CCOCC4)nc3)C2)c1 [Example 42, (S)-N-(1-(3-Cyanobenzyl)pyrrolidin-3-yl)-6-morpholinopyridine-3-sulfonamide]
27 | > 1000 nM | 100 to 500 nM | O=S(=O)(c1ccc(N2CCOCC2)nc1)N1CCC[C@@H](CNCc2ccc(O)nc2)C1 [Example 65, (S)-5-((((1-((6-Morpholinopyridin-3-yl)sulfonyl)piperidin-3-yl)methyl)amino)methyl)pyridin-2-ol]
28 | > 1000 nM | < 100 nM | CN(Cc1ccc(F)cc1)[C@H]1CC[C@H](NS(=O)(=O)c2ccc(N3CCOCC3)cn2)CC1 [Example 119, N-((1r,4r)-4-((4-Fluoro-benzyl)(methyl)amino)cyclo-hexyl)-5-morpholinopyridine-2-sulfonamide]
29 | > 1000 nM | < 100 nM | CC(C)(C)CN1CCC2(CC1)CCN(S(=O)(=O)c1ccc(N3CCOC3=O)nc1)CC2 [Example 143, 3-(5-((9-Neopentyl-3,9-diazaspiro[5.5]undecan-3-yl)sulfonyl)pyridin-2-yl)oxazolidin-2-one]
